In ChEMBL document CHEMBL1201862, “PubChem BioAssay data set” (2004):
The source made the active and inactive calls.

Legend:
[1] = target: T1, Coagulation factor XII (Homo sapiens, UniProt P00748); test: FXIIa inhibitor potency, concentration-response, biochemical (AID 716); type: functional
T1 sequence (P00748 whole entry): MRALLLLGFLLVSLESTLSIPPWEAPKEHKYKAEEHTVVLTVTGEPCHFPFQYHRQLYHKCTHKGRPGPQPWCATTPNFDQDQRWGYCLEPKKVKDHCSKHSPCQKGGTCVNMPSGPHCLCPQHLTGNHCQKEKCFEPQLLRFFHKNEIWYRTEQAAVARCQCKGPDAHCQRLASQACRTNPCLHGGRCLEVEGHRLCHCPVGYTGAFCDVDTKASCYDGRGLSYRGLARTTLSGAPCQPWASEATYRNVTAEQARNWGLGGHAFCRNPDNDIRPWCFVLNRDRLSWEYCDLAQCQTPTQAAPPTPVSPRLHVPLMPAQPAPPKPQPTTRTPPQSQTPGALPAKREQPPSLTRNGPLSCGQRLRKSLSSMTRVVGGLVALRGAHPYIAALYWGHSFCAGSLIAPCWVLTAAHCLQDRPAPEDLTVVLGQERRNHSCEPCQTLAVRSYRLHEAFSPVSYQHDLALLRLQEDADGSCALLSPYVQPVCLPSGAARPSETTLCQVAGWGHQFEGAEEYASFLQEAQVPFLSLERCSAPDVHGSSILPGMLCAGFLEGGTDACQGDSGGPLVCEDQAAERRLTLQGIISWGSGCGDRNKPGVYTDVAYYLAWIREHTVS

[2] = system: H4; test: Luminescence Cell-Based Dose Response HTS to Identify Activators of 5'UTR Stem-Loop Driven Prion Protein mRNA Translation in H4 Neuroglioblastoma Cells. [Related pubchem assays: 1829 (Project Summary), 1814 (Primary HTS)]; type: functional; details: Homo sapiens
[3] = target: T1, Coagulation factor XII; test: Factor XIIa Dose Response Confirmation from Single Well HTS. [Related pubchem assays (depositor defined):AID701]; type: functional
[4] = target: 72 kDa type IV collagenase (Homo sapiens, UniProt P08253); test: Dose Response validation of uHTS RPN11 inhibitor hits using a MMP-2 Fluorescence assay.; type: functional
[5] = target: T2, Fatty acid synthase (Homo sapiens, UniProt P49327); test: FAS thioesterase domain inhibitors, dose response, biochemical, kinetic fluorescence intensity (AID 624326); type: functional;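 further: rate of fluorescence rise from hydrolysis of a fluorogenic O-methyl fluorescein ester substrate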
[6] = target: Envelope glycoprotein gp160 (Human immunodeficiency virus 1, UniProt Q6QLK5); test: inhibitors of HIV fusion peptide binding, primary screen, biochemical, uHTS, fluorescence dequenching (AID 1986)
[7] = target: T2, Fatty acid synthase; test: FAS thioesterase domain inhibitors, dose response, biochemical, endpoint fluorescence intensity, uHTS hits (AID 624327); type: functional;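 further: fluorescence from hydrolysis of an O-methyl fluorescein acyl ester substrate by the enzyme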
[8] = system: Streptococcus sp. 'group A'; test: growth inhibition of control SK(-) GAS strain, dose response, counter-screen for streptokinase expression inhibitor project, luminescence, kanamycin, BacTiterGlo, confirmation (AID 1900); type: functional, organism-based
[9] = HIV-1 Env-mediated cell fusion inhibitors, dose response, CCR5-tropic Env (AID 2279); type: functional
[10] = system: Streptococcus; test: Group A Streptococcus viability loss, dose response, counter-screen for streptokinase expression inhibitor project, luminescence, BacTiterGlo (AID 1915); type: functional, organism-based;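 further: potency for reduction of bacterial viability or growth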
[11] = target: 26S proteasome non-ATPase regulatory subunit 14 (Homo sapiens, UniProt O00487); test: inhibition of proteasome subunit RPN11 – biochemical, fluorescence polarization, uHTS hits, confirmation (AID 602368); type: functional
[12] = target: T3, Protein RecA (Mycobacterium tuberculosis, UniProt P9WHJ3); test: Fluorescence Cell-Free Homogeneous Dose Retest to Identify Inhibitors of RecA-Intein Splicing Activity. [Related pubchem assays (depositor defined):AID2097, AID2223, AID489010, AID492950]; type: functional
T3 sequence (P9WHJ3 whole entry): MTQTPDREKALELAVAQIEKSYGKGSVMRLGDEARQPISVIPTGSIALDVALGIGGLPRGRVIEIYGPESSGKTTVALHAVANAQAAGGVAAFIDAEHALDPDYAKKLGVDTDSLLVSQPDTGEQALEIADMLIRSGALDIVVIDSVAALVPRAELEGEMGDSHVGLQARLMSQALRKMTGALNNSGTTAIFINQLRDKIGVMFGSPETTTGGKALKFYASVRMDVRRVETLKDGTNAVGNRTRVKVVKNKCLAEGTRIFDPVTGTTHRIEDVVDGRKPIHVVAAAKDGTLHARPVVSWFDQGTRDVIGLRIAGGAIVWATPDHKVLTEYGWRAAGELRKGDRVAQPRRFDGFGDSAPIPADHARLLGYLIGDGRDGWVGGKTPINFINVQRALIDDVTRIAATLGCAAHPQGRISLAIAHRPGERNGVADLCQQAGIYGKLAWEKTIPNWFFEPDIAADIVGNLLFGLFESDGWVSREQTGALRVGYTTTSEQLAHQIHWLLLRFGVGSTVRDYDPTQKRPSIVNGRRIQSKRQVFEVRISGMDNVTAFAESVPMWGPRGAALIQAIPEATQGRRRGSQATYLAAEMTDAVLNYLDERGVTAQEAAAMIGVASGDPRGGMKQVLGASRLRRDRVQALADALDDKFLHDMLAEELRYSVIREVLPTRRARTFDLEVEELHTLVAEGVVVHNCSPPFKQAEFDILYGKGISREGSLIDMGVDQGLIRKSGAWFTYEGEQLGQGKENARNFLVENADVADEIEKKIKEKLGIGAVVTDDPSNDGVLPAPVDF

[13] = target: T4, Replicative DNA helicase DnaB (Mycobacterium tuberculosis, UniProt P9WMR3); test: DnaB intein splicing inhibitors, dose response, biochemical, cell-free fluorescence (AID 449749); type: functional
T4 sequence (P9WMR3 whole entry): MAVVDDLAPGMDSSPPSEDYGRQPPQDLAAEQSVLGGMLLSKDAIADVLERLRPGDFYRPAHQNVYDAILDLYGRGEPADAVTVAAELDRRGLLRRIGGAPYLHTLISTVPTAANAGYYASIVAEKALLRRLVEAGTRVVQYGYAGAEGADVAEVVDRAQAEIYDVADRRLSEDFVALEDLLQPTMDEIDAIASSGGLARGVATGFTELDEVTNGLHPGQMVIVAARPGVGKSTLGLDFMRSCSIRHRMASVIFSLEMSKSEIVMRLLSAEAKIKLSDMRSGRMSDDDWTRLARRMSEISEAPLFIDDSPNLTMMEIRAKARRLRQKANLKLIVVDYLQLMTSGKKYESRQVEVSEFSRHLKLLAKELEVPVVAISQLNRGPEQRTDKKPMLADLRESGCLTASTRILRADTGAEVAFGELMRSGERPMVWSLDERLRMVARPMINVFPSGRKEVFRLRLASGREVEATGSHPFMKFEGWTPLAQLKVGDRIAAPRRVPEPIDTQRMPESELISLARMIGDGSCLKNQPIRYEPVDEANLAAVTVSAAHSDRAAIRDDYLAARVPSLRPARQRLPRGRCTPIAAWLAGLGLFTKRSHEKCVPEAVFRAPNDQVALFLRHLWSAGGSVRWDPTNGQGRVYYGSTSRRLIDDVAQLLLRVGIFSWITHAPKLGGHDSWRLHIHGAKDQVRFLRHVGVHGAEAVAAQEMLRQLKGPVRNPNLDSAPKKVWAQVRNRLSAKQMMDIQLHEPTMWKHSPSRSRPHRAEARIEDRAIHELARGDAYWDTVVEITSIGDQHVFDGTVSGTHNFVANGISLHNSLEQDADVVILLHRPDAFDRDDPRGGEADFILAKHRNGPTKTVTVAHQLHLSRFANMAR

[14] = Intein inhibitors as potential Tuberculosis drugs, a cytotoxicity screen. [Related pubchem assays (depositor defined):AID2221, AID2223, AID434968, AID435010, AID449749, AID449750, AID489010]; type: functional
[15] = target: Prothrombin (Bos taurus, UniProt P00735); test: thrombin inhibition, dose response, biochemical, fluorescence polarization, uHTS hits (AID 602369); type: functional
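Wherever CC50 is given: cells exposed to compound for 72 hours before luminescence readout.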

T2 sequence (P49327 whole entry, the tested form may be a part): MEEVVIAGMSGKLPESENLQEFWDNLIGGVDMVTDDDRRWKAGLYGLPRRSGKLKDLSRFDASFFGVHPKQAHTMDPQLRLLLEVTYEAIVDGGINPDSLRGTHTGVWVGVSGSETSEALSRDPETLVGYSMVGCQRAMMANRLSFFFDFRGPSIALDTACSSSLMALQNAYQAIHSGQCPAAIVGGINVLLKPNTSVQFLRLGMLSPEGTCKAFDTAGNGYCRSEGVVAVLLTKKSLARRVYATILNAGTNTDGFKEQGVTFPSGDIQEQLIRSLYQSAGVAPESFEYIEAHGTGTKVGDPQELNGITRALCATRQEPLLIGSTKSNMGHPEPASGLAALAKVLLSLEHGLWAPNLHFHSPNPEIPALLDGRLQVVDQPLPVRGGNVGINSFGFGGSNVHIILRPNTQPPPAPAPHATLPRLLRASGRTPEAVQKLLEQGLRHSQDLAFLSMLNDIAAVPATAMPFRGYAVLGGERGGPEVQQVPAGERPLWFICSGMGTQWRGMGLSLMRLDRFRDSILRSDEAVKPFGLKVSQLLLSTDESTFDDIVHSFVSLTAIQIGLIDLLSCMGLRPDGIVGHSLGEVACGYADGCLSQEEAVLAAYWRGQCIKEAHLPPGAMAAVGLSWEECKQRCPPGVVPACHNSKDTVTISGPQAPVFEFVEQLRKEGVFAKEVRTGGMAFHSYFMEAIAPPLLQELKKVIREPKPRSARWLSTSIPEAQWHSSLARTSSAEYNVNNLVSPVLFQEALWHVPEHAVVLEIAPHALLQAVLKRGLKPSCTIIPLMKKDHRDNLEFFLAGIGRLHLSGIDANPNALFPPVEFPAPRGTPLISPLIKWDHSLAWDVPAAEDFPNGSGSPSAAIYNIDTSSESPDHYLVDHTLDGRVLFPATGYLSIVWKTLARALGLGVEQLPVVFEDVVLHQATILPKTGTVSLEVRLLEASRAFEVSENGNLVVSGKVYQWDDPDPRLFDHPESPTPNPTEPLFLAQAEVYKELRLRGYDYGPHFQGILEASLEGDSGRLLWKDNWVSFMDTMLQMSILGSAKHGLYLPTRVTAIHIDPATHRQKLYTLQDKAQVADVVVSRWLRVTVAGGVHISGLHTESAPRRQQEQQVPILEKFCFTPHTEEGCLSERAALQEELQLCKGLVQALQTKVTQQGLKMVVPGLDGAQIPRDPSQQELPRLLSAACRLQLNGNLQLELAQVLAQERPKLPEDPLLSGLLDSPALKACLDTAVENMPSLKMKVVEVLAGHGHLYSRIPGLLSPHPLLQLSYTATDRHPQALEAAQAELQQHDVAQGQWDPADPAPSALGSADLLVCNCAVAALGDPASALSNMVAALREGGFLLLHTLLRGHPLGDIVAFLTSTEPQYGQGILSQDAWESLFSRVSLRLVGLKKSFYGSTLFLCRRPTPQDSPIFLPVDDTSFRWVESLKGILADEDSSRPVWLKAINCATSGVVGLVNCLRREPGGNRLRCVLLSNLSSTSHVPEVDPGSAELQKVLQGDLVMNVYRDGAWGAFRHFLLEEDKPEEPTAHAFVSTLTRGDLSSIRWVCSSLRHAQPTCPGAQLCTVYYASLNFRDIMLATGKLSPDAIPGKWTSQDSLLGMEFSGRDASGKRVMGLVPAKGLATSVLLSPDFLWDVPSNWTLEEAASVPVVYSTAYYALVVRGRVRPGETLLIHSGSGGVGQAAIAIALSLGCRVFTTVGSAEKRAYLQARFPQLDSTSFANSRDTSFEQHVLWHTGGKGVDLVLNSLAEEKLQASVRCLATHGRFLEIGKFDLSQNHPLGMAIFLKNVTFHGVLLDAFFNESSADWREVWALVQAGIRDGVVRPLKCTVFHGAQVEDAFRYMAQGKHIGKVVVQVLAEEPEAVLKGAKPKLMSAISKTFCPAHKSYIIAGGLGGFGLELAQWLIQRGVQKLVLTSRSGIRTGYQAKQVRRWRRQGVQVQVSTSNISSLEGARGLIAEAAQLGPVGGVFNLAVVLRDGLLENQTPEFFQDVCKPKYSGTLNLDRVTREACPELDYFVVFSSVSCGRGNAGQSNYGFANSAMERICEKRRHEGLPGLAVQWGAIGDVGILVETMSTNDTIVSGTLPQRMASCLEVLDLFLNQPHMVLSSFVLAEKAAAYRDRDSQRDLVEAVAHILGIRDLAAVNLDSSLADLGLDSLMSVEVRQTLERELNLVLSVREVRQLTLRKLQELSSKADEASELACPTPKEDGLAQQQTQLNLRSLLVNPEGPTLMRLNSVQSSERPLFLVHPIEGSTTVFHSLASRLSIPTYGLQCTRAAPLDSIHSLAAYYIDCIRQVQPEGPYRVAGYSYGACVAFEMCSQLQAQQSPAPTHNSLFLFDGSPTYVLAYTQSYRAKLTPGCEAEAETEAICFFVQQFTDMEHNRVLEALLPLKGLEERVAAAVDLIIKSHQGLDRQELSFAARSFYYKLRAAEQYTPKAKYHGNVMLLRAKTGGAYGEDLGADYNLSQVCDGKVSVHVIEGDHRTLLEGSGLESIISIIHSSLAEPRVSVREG
26S proteasome non-ATPase regulatory subunit 14, sequence (O00487 whole entry): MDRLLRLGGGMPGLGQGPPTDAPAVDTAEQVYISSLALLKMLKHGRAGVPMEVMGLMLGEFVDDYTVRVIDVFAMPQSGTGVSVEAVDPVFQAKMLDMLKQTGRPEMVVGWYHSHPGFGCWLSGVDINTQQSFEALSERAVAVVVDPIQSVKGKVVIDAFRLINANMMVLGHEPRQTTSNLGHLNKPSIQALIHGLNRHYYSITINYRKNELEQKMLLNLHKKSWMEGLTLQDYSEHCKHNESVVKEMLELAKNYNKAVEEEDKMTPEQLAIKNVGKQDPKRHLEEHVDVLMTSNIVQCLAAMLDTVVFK
72 kDa type IV collagenase, sequence (P08253 whole entry, the tested form may be a part): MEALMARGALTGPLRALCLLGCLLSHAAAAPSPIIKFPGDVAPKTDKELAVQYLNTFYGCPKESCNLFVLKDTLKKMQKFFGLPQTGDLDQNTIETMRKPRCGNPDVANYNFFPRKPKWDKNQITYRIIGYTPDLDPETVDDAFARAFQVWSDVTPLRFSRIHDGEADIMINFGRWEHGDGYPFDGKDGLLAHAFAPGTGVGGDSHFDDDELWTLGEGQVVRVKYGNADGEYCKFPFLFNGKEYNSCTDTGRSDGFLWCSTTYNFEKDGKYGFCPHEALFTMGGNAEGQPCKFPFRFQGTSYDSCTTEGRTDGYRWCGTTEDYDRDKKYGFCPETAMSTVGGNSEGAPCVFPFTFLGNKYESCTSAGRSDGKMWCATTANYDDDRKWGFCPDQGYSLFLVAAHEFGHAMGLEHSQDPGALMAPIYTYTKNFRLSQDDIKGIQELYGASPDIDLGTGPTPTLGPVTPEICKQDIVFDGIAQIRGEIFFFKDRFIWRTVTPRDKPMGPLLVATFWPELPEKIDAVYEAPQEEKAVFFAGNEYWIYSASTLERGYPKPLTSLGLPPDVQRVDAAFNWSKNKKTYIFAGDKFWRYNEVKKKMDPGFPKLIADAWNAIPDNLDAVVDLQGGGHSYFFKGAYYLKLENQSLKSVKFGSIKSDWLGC
Envelope glycoprotein gp160, sequence (Q6QLK5 whole entry, the tested form may be a part): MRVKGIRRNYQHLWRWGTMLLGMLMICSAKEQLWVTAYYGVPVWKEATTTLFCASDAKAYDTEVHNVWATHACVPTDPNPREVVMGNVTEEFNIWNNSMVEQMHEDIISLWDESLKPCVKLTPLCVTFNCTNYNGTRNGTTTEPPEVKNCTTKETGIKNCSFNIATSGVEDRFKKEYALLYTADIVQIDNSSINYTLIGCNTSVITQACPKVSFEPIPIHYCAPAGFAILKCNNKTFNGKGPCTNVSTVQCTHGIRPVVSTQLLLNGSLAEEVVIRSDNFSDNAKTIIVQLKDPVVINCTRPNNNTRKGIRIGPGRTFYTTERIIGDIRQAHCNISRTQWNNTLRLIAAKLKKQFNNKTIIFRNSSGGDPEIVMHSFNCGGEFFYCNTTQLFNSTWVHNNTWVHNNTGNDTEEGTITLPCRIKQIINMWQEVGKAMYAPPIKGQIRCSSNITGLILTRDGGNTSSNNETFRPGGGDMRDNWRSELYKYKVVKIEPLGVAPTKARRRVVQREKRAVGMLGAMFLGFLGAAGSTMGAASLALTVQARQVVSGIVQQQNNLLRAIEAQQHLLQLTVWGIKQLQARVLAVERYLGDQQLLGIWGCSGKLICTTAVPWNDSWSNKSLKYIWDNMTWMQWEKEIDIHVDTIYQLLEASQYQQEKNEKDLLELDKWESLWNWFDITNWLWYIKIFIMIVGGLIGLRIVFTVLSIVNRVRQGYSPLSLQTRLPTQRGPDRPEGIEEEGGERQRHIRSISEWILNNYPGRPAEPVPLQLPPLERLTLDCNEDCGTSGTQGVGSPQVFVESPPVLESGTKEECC

## COc1ccc(Cn2c(C3CC3)nc3ccc(NC(=O)C4CC4)cc3c2=O)cc1
[1]
  IC50: > 50 µM (inactive)
[2]
  EC50: 0.679 µM (active)

## O=C(c1ccc2c(c1)OCO2)N1CCN(c2ccc(F)cc2)CC1
[3]
  IC50: > 50 µM (inactive)

## O=C1NC(=S)N(C2CCCCC2)C(=O)/C1=C/NNC(=O)c1ccccc1O
[4]
  IC50: > 100 µM (inactive)
[5]
  IC50: 18.2 µM (active)
[6]
  IC50: 17.7 µM (active)
[7]
  IC50: 31.1 µM (inactive)
[8]
  EC50: 0.725 µM (active)
[9]
  IC50: 33.7 µM (active)
[10]
  EC50: 2.18 µM (active)
[11]
  IC50: 36.7 µM (active)
[12]
  EC50: 4.6 µM (active)
[13]
  AC50: 3.25 µM (active)
[14]
  CC50: 31.2 µM (active)
[15]
  IC50: 93.6 µM (active)
